Values joined by “and” are separate entries in the source; they are usually repeats but may differ in a detail not shown here. Equal entries are not always repeated. Inconclusive results and toxic doses are left out. Cut-off read from the data, not from the text of the source: active = T/C of 150% or more; inactive = T/C below 125%.
System: L1210 leukemia ip in BDF1 mice, survival T/C
Assay: NCI In Vivo Anticancer Drug Screen. Data for tumor model L1210 Leukemia (intraperitoneal) in B6D2F1 (BDF1) mice
Details: endpoint: mean survival time, higher = longer survival
Outline: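 Antitumor effect is assessed in tumor-bearing animals. Survival in the compound arm is compared with a vehicle-dosed control arm and expressed as their quotient.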

[1] = dose: 100.0 mg/kg/injection, schedule: Q01DX001 (ip), vehicle: saline
[2] = dose: 200.0 mg/kg/injection, schedule: Q01DX001 (ip), vehicle: saline
[3] = dose: 400.0 mg/kg/injection, schedule: Q01DX001 (ip), vehicle: saline
[4] = dose: 100.0 mg/kg/injection, schedule: Q04DX003 (ip), vehicle: saline
[5] = dose: 200.0 mg/kg/injection, schedule: Q04DX003 (ip), vehicle: saline
[6] = dose: 100.0 mg/kg/injection, schedule: Q01DX009 (ip), vehicle: saline with Tween-80
[7] = dose: 200.0 mg/kg/injection, schedule: Q01DX009 (ip), vehicle: saline with Tween-80
[8] = dose: 100.0 mg/kg/injection, schedule: Q01DX009 (ip), vehicle: water
[9] = dose: 200.0 mg/kg/injection, schedule: Q01DX009 (ip), vehicle: water
[10] = dose: 100.0 mg/kg/injection, schedule: Q04DX003 (ip), vehicle: water
[11] = dose: 200.0 mg/kg/injection, schedule: Q04DX003 (ip), vehicle: water

Measured: T/C

CC1=C(N)NN(O)C=C1
inactive: dose: 100.0 mg/kg/injection, schedule: Q04DX002 (ip), vehicle: saline 104 % of control | dose: 200.0 mg/kg/injection, schedule: Q04DX002 (ip), vehicle: saline 116 % of control | dose: 400.0 mg/kg/injection, schedule: Q04DX002 (ip), vehicle: saline 101 % of control

O=C(CCN1CCCC1)c1ccc(F)cc1
inactive: dose: 25.0 mg/kg/injection, schedule: Q01DX009 (ip), vehicle: saline 109 % of control | dose: 50.0 mg/kg/injection, schedule: Q01DX009 (ip), vehicle: saline 115 % of control

O=C(Nc1ccc(Cl)c(Cl)c1)Nc1ccccc1O
inactive: dose: 100.0 mg/kg/injection, schedule: Q04DX003 (ip), vehicle: Klucel (hydroxypropylcellulose) (HPC) 100 % of control | dose: 200.0 mg/kg/injection, schedule: Q04DX003 (ip), vehicle: Klucel (hydroxypropylcellulose) (HPC) 102 % of control | dose: 400.0 mg/kg/injection, schedule: Q04DX003 (ip), vehicle: Klucel (hydroxypropylcellulose) (HPC) 100 % of control

CCCCOB(OCCCC)c1ccc(B(OCCCC)OCCCC)cc1
inactive: [1] 97 % of control | [2] 101 % of control | [3] 89 % of control

O=C(NNC(=S)Nc1cccc(Cl)c1)c1ccncc1
inactive: dose: 25.0 mg/kg/injection, schedule: Q01DX009 (ip), vehicle: Klucel (hydroxypropylcellulose) (HPC) 104 % of control | dose: 50.0 mg/kg/injection, schedule: Q01DX009 (ip), vehicle: Klucel (hydroxypropylcellulose) (HPC) 96 % of control | dose: 100.0 mg/kg/injection, schedule: Q01DX009 (ip), vehicle: Klucel (hydroxypropylcellulose) (HPC) 96 % of control

CN(C)CCC(O)c1ccc(Cl)cc1 (stereo not given)
inactive: [4] 102 % of control | [5] 98 % of control

CCC1=C/C(=C/c2cccc(OC)c2O)C(=O)S1
inactive: dose: 100.0 mg/kg/injection, schedule: Q01DX001 (ip), vehicle: saline with Tween-80 97 % of control | dose: 200.0 mg/kg/injection, schedule: Q01DX001 (ip), vehicle: saline with Tween-80 97 % of control | dose: 400.0 mg/kg/injection, schedule: Q01DX001 (ip), vehicle: saline with Tween-80 87 % of control

O=CC12C=CC(CC1)C1C(=O)OC(=O)C12 (stereo not given)
inactive: dose: 75.0 mg/kg/injection, schedule: Q01DX009 (ip), vehicle: saline 112 % of control | [1] 91 % of control | dose: 150.0 mg/kg/injection, schedule: Q01DX009 (ip), vehicle: saline 97 % of control | [2] 98 % of control | dose: 300.0 mg/kg/injection, schedule: Q01DX009 (ip), vehicle: saline 91 % of control | [3] 96 % of control

S=C(S)N1CCC(CC2CCN(C(=S)S)CC2)CC1
inactive: [6] 98 % of control | dose: 100.0 mg/kg/injection, schedule: Q04DX003 (ip), vehicle: saline with Tween-80 102 % of control | [7] 93 % of control | dose: 200.0 mg/kg/injection, schedule: Q04DX003 (ip), vehicle: saline with Tween-80 96 % of control | dose: 400.0 mg/kg/injection, schedule: Q04DX003 (ip), vehicle: saline with Tween-80 86 % of control

CC(=O)NCc1cccc([N+](=O)[O-])c1
inactive: dose: 25.0 mg/kg/injection, schedule: Q01DX005 (ip), vehicle: saline 111 % of control | dose: 100.0 mg/kg/injection, schedule: Q01DX005 (ip), vehicle: saline 102 % of control

COc1ccc(CN(CCOC(=O)c2ccc(OC)cc2)CCN(CCOC(=O)c2ccc(OC)cc2)Cc2ccc(OC)cc2)cc1
inactive: dose: 12.5 mg/kg/injection, schedule: Q01DX009 (ip), vehicle: other 91 % of control | dose: 25.0 mg/kg/injection, schedule: Q01DX009 (ip), vehicle: other 86 % of control | dose: 25.0 mg/kg/injection, schedule: Q01DX009 (ip), vehicle: water 88 % of control | dose: 50.0 mg/kg/injection, schedule: Q01DX009 (ip), vehicle: other 91 % of control | dose: 50.0 mg/kg/injection, schedule: Q01DX009 (ip), vehicle: water 93 % of control | dose: 100.0 mg/kg/injection, schedule: Q01DX009 (ip), vehicle: other 88 % of control | [8] 87 % of control | [9] 88 % of control | dose: 400.0 mg/kg/injection, schedule: Q01DX009 (ip), vehicle: water 92 % of control

N#Cc1cn(C2OC(CO)C(O)C2O)c2ncn3ccnc3c12 (stereo not given)
inactive: [10] 116 % of control | [11] 113 % of control and 117 % of control | dose: 300.0 mg/kg/injection, schedule: Q04DX003 (ip), vehicle: water 121 % of control | dose: 500.0 mg/kg/injection, schedule: Q04DX003 (ip), vehicle: water 107 % of control

CCOC(=O)C(O)(CC)c1ccncc1C (stereo not given)
inactive: [4] 96 % of control | [5] 98 % of control | dose: 400.0 mg/kg/injection, schedule: Q04DX003 (ip), vehicle: saline 100 % of control

CC(=O)Nc1cccc([N+](=O)[O-])c1
inactive: dose: 50.0 mg/kg/injection, schedule: Q01DX009 (ip), vehicle: saline with Tween-80 100 % of control | [1] 108 % of control | [6] 90 % of control | [2] 102 % of control | [7] 103 % of control | [3] 108 % of control

CC1NC(=O)NC(=O)C1CCSCCC1C(=O)NC(=O)NC1C (stereo not given)
inactive: [1] 96 % of control | [2] 109 % of control | [3] 104 % of control

COC1OC(C)C(O)C(O)[CH]1[Hg][O]C(C)=O (stereo not given)
inactive: dose: 3.12 mg/kg/injection, schedule: Q01DX009 (ip), vehicle: saline 113 % of control | dose: 5.0 mg/kg/injection, schedule: Q01DX001 (ip), vehicle: saline 110 % of control | dose: 6.25 mg/kg/injection, schedule: Q01DX009 (ip), vehicle: saline 89 % of control | dose: 6.25 mg/kg/injection, schedule: Q04DX003 (ip), vehicle: saline 102 % of control | dose: 10.0 mg/kg/injection, schedule: Q01DX001 (ip), vehicle: saline 103 % of control | dose: 12.5 mg/kg/injection, schedule: Q04DX003 (ip), vehicle: saline 106 % of control

O=C1NC2C3CC(c4ccccc43)C12 (stereo not given)
inactive: dose: 100.0 mg/kg/injection, schedule: Q04DX002 (ip), vehicle: Klucel (hydroxypropylcellulose) (HPC) 101 % of control | dose: 200.0 mg/kg/injection, schedule: Q04DX002 (ip), vehicle: Klucel (hydroxypropylcellulose) (HPC) 108 % of control | dose: 400.0 mg/kg/injection, schedule: Q04DX002 (ip), vehicle: Klucel (hydroxypropylcellulose) (HPC) 111 % of control

Nc1ccc2cn[nH]c2c1
inactive: dose: 50.0 mg/kg/injection, schedule: Q04DX002 (ip), vehicle: saline with Tween-80 100 % of control | [8] 104 % of control | dose: 100.0 mg/kg/injection, schedule: Q04DX002 (ip), vehicle: saline with Tween-80 100 % of control | [10] 96 % of control | [9] 111 % of control | dose: 200.0 mg/kg/injection, schedule: Q04DX002 (ip), vehicle: saline with Tween-80 106 % of control | [11] 94 % of control | dose: 400.0 mg/kg/injection, schedule: Q04DX003 (ip), vehicle: water 100 % of control

O=C1c2ccccc2-c2cc(Cl)c(N=Cc3ccc4c(c3)OCO4)cc21
inactive: dose: 100.0 mg/kg/injection, schedule: Q01DX001 (ip), vehicle: carboxymethylcellulose (CMC) 98 % of control | dose: 200.0 mg/kg/injection, schedule: Q01DX001 (ip), vehicle: carboxymethylcellulose (CMC) 102 % of control | dose: 400.0 mg/kg/injection, schedule: Q01DX001 (ip), vehicle: carboxymethylcellulose (CMC) 109 % of control

CC(C)CNC(=S)Nc1ccccc1
inactive: dose: 75.0 mg/kg/injection, schedule: Q01DX001 (ip), vehicle: other 98 % of control | dose: 150.0 mg/kg/injection, schedule: Q01DX001 (ip), vehicle: other 98 % of control | dose: 300.0 mg/kg/injection, schedule: Q01DX001 (ip), vehicle: other 102 % of control

— PubChem BioAssay AID248 (DTP/NCI, 2004)
